Reference: ChEMBL document CHEMBL3872264, “Discovery of biphenyl imidazole derivatives as potent antifungal agents: Design, synthesis, and structure-activity relationship studies” (Bioorg Med Chem, 2017)
Values after ≈ are worked out from the molar mass of the structure shown.

Tests used:
Cryptococcus neoformans = test: Anti-fungal activity against Cryptococcus neoformans CGMCC 2.3161 by broth microdilution method; format: functional
Aspergillus fumigatus = test: Anti-fungal activity against Aspergillus fumigatus CGMCC 3.7795 by broth microdilution method; format: functional
Candida albicans [1] = test: Anti-fungal activity against Candida albicans SC5314 by broth microdilution method; format: functional
Candida tropicalis = test: Anti-fungal activity against Candida tropicalis CGMCC 2.3739 by broth microdilution method; format: functional
Candida albicans [2] = test: Anti-fungal activity against Candida albicans CPCC 400523 by broth microdilution method; format: functional
[3] = target: T1, Lanosterol 14-alpha demethylase (Candida albicans (strain SC5314 / ATCC MYA-2876) (Yeast), UniProt P10613); test: Inhibition of Candida albicans SC5314 CYP51 assessed as obtusifoliol composition of total sterols at 8 ug/ml by GC-MS method relative to control; design: scale not given: the % may be the effect or the level left; details: at 8 µg/mL
Candida albicans [4] = test: Anti-fungal activity against fluconazole-resistant Candida albicans 100 by broth microdilution method; format: functional
[5] = target: T1, Lanosterol 14-alpha demethylase; test: Inhibition of Candida albicans SC5314 CYP51 assessed as lanosterol composition of total sterols at 8 ug/ml by GC-MS method (reference value: 3.5 %); design: scale not given: the % may be the effect or the level left; details: at 8 µg/mL
[6] = target: T1, Lanosterol 14-alpha demethylase; test: Inhibition of Candida albicans SC5314 CYP51 assessed as eburicol composition of total sterols at 8 ug/ml by GC-MS method relative to control; design: scale not given: the % may be the effect or the level left; details: at 8 µg/mL
[7] = target: T1, Lanosterol 14-alpha demethylase; test: Inhibition of Candida albicans SC5314 CYP51 assessed as change in total sterol composition at 8 ug/ml by GC-MS method (reference value: 7.1 %); design: scale not given: the % may be the effect or the level left; details: at 8 µg/mL
[8] = target: T1, Lanosterol 14-alpha demethylase; test: Inhibition of Candida albicans SC5314 CYP51 assessed as ergosterol composition of total sterols at 8 ug/ml by GC-MS method (reference value: 89.4 %); design: scale not given: the % may be the effect or the level left; details: at 8 µg/mL
Candida albicans [9] = test: Anti-fungal activity against fluconazole-resistant Candida albicans 103 by broth microdilution method; format: functional

T1 sequence (P10613 whole entry): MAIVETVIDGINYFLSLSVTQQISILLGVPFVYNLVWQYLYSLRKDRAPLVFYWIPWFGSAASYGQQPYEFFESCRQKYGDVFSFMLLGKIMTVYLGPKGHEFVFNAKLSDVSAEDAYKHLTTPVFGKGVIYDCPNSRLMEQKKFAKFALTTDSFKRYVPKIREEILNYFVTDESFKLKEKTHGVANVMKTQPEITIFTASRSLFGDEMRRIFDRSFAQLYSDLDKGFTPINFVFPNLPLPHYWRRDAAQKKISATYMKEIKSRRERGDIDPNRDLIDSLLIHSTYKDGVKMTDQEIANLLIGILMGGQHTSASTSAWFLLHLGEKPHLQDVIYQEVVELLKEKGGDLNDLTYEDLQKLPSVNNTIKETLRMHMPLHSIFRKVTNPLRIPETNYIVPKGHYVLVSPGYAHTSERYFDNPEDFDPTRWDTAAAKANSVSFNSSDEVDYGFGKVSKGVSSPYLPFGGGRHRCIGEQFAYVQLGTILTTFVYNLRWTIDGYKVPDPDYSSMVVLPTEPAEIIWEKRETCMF

| Structure (SMILES) | MIC (Cryptococcus neoformans) [µg/mL] | MIC (Aspergillus fumigatus) [µg/mL] | MIC (Candida albicans [1]) [µg/mL] | MIC (Candida tropicalis) [µg/mL] | MIC (Candida albicans [2]) [µg/mL] | Activity [3] [%] | MIC (Candida albicans [4]) [µg/mL] | Activity [5] [%] | Activity [6] [%] | Activity [7] [%] | Activity [8] [%] | MIC (Candida albicans [9]) [µg/mL] |
| --- | --- | --- | --- | --- | --- | --- | --- | --- | --- | --- | --- | --- |
| CC(C)COC(=O)[C@H](Cn1ccnc1)NC(=O)c1ccc(-c2ccccc2Cl)cc1 | 16 (≈ 37.6 µM) | > 16 | 0.5 (≈ 1.17 µM) | 0.5 (≈ 1.17 µM) | 2 (≈ 4.7 µM) |  |  |  |  |  |  |  |
| CC(C)OC(=O)[C@H](Cn1cncn1)NC(=O)c1ccc(-c2ccccc2)cc1 | 16 (≈ 42.3 µM) | > 16 | 0.25 (≈ 0.661 µM) | 2 (≈ 5.28 µM) | 4 (≈ 10.6 µM) |  |  |  |  |  |  |  |
| Cc1ccccc1-c1ccc(C(=O)N[C@@H](Cn2ccnc2)C(=O)OC(C)C)cc1 | 16 (≈ 40.9 µM) | > 16 | 0.5 (≈ 1.28 µM) | 2 (≈ 5.11 µM) | 2 (≈ 5.11 µM) |  |  |  |  |  |  |  |
| CCCOC(=O)[C@H](Cn1ccnc1)NC(=O)c1ccc(-c2ccccc2F)cc1 | 0.5 (≈ 1.26 µM) | > 16 | 0.125 (≈ 0.316 µM) | 0.0625 (≈ 0.158 µM) | 0.25 (≈ 0.632 µM) |  |  |  |  |  |  |  |
| CC(C)OC(=O)[C@H](Cn1ccnc1)NC(=O)c1ccc(-c2ccc(F)c(F)c2)cc1 | > 16 | > 16 | > 16 | 8 (≈ 19.4 µM) | > 16 |  |  |  |  |  |  |  |
| COC(=O)[C@H](Cn1ccnc1)NC(=O)c1ccc(-c2ccccc2)cc1 | > 16 | > 16 | 2 (≈ 5.72 µM) | 0.25 (≈ 0.716 µM) | 2 (≈ 5.72 µM) |  |  |  |  |  |  |  |
| OC(Cn1cncn1)(Cn1cncn1)c1ccc(F)cc1F [FLUCONAZOLE] | 4 (≈ 13.1 µM) | > 16 | 0.5 (≈ 1.63 µM) | 1 (≈ 3.27 µM) | 1 (≈ 3.27 µM) | 6.8 | > 64 | 18.2 | 68.1 | 4.9 | 2 | > 64 |
| CC(C)OC(=O)[C@H](Cn1ccnc1)NC(=O)c1ccc(-c2ccc(F)cc2)cc1 | > 16 | > 16 | 1 (≈ 2.53 µM) | 0.5 (≈ 1.26 µM) | 8 (≈ 20.2 µM) |  |  |  |  |  |  |  |
| CC(C)OC(=O)[C@H](Cn1ccnc1)NC(=O)c1ccc(-c2ccc(F)cc2F)cc1 | 8 (≈ 19.4 µM) | > 16 | 1 (≈ 2.42 µM) | 0.5 (≈ 1.21 µM) | 2 (≈ 4.84 µM) |  |  |  |  |  |  |  |
| CC(C)CNC(=O)[C@H](Cn1ccnc1)NC(=O)c1ccc(-c2ccccc2)cc1 | > 16 | > 16 | > 16 | > 16 | > 16 |  |  |  |  |  |  |  |
| Cc1ccccc1-c1ccc(C(=O)N[C@@H](Cn2ccnc2)C(=O)OCC(C)C)cc1 | > 16 | > 16 | > 16 | 4 (≈ 9.86 µM) | > 16 |  |  |  |  |  |  |  |
| CC(C)COC(=O)[C@H](Cn1ccnc1)NC(=O)c1ccc(-c2ccccc2F)cc1 | 0.5 (≈ 1.22 µM) | > 16 | 0.0312 (≈ 0.0763 µM) | 0.0312 (≈ 0.0763 µM) | 0.125 (≈ 0.305 µM) | 6.6 | 2 (≈ 4.88 µM) | 19.6 | 65.1 | 6.2 | 2.5 | 4 (≈ 9.77 µM) |
| CCC(C)n1ncn(-c2ccc(N3CCN(c4ccc(OCC5COC(Cn6cncn6)(c6ccc(Cl)cc6Cl)O5)cc4)CC3)cc2)c1=O (stereo unspecified) [ITRACONAZOLE] | 1 (≈ 1.42 µM) | 4 (≈ 5.67 µM) | 0.0625 (≈ 0.0886 µM) | 0.5 (≈ 0.709 µM) | 0.25 (≈ 0.354 µM) |  |  |  |  |  |  |  |
| CC(C)OC(=O)[C@H](Cn1ccnc1)NC(=O)c1ccc(-c2cccc(C#N)c2)cc1 | > 16 | > 16 | > 16 | 8 (≈ 19.9 µM) | > 16 |  |  |  |  |  |  |  |
| COC(=O)[C@H](Cn1ccnc1)NC(=O)c1ccc(-c2ccccc2F)cc1 | 2 (≈ 5.44 µM) | > 16 | 16 (≈ 43.6 µM) | 4 (≈ 10.9 µM) | 16 (≈ 43.6 µM) |  |  |  |  |  |  |  |
| CC(C)COC(=O)[C@H](Cn1cncn1)NC(=O)c1ccc(-c2ccccc2)cc1 | 16 (≈ 40.8 µM) | > 16 | 1 (≈ 2.55 µM) | 4 (≈ 10.2 µM) | 8 (≈ 20.4 µM) |  |  |  |  |  |  |  |
| CCOC(=O)[C@H](Cn1ccnc1)NC(=O)c1ccc(-c2ccccc2F)cc1 | 1 (≈ 2.62 µM) | > 16 | 0.25 (≈ 0.655 µM) | 0.125 (≈ 0.328 µM) | 1 (≈ 2.62 µM) |  |  |  |  |  |  |  |
| CC(C)OC(=O)[C@H](Cn1ccnc1)NC(=O)c1ccc(-c2ccc(OC(F)(F)F)cc2)cc1 | 16 (≈ 34.7 µM) | > 16 | 0.125 (≈ 0.271 µM) | 0.5 (≈ 1.08 µM) | 0.125 (≈ 0.271 µM) |  |  |  |  |  |  |  |
| CC(C)OC(=O)[C@H](Cn1ccnc1)NC(=O)c1ccc(-c2ccccc2)cc1 | 2 (≈ 5.3 µM) | > 16 | 0.0312 (≈ 0.0828 µM) | 0.0625 (≈ 0.166 µM) | 0.25 (≈ 0.662 µM) |  |  |  |  |  |  |  |
| CC(C)OC(=O)[C@H](Cn1ccnc1)NC(=O)c1ccc(-c2cc(F)ccc2F)cc1 | 16 (≈ 38.7 µM) | > 16 | 0.25 (≈ 0.605 µM) | 0.0625 (≈ 0.151 µM) | 1 (≈ 2.42 µM) |  |  |  |  |  |  |  |
| CC(C)NC(=O)[C@H](Cn1ccnc1)NC(=O)c1ccc(-c2ccccc2)cc1 | > 16 | > 16 | > 16 | > 16 | > 16 |  |  |  |  |  |  |  |
| CC(C)COC(=O)[C@H](Cn1ccnc1)NC(=O)c1ccc(-c2ccccc2)cc1 | 1 (≈ 2.55 µM) | > 16 | 0.0312 (≈ 0.0798 µM) | 0.0312 (≈ 0.0798 µM) | 0.25 (≈ 0.639 µM) |  |  |  |  |  |  |  |
| CC(C)OC(=O)[C@H](Cn1ccnc1)NC(=O)c1ccc(-c2cccc(F)c2)cc1 | 16 (≈ 40.5 µM) | > 16 | 0.0625 (≈ 0.158 µM) | 0.0625 (≈ 0.158 µM) | 0.25 (≈ 0.632 µM) |  |  |  |  |  |  |  |
| CC(C)OC(=O)[C@H](Cn1ccnc1)NC(=O)c1ccc(-c2ccccc2F)cc1 | 1 (≈ 2.53 µM) | > 16 | 0.0625 (≈ 0.158 µM) | 0.0625 (≈ 0.158 µM) | 0.25 (≈ 0.632 µM) |  | 8 (≈ 20.2 µM) |  |  |  |  | 4 (≈ 10.1 µM) |
| Cc1ccc(-c2ccc(C(=O)N[C@@H](Cn3ccnc3)C(=O)OC(C)C)cc2)cc1 | 4 (≈ 10.2 µM) | > 16 | 0.0625 (≈ 0.16 µM) | 0.0625 (≈ 0.16 µM) | 0.5 (≈ 1.28 µM) |  |  |  |  |  |  |  |
| CC(C)OC(=O)[C@H](Cn1ccnc1)NC(=O)c1ccc(-c2ccc(C(F)(F)F)cc2)cc1 | > 16 | > 16 | > 16 | 2 (≈ 4.49 µM) | > 16 |  |  |  |  |  |  |  |
| CC(C)OC(=O)[C@H](Cn1ccnc1)NC(=O)c1ccc(-c2ccccc2Cl)cc1 | 16 (≈ 38.8 µM) | > 16 | 0.25 (≈ 0.607 µM) | 0.5 (≈ 1.21 µM) | 1 (≈ 2.43 µM) |  |  |  |  |  |  |  |
| CC(C)OC(=O)[C@H](Cn1ccnc1)NC(=O)c1ccc(-c2ccc(Cl)cc2)cc1 | 16 (≈ 38.8 µM) | > 16 | 0.25 (≈ 0.607 µM) | 0.25 (≈ 0.607 µM) | 1 (≈ 2.43 µM) |  |  |  |  |  |  |  |
